Experimental data from patent US20260083865A1, “PROSTATE SPECIFIC MEMBRANE ANTIGEN (PSMA) LIGANDS AND USE THEREOF” (priority 2022, published 2026).
Numbered stars: 1 amine (or outer) side, 2 acyl side, 3 side chain; on linkers, the order of the positions; unused ones are H or OH. Bridge positions count the residues as written; N and C are the ends. Square brackets hold non-standard residues; d marks the D form. Peptide text beside a SMILES is read from it. * marks the point of attachment. X3 = O=C(O)CN1CCN(CC(=O)O)CCN(CC(=O)NCCCOCCOCCOCCCN*)CCN(CC(=O)O)CC1; DOTA = O=C(O)CN1CCN(CC(=O)O)CCN(CC(=O)*)CCN(CC(=O)O)CC1; Phe(4-Cl) = N[C@@H](Cc1ccc(Cl)cc1)C(=O)O; 2Nal = N[C@@H](Cc1ccc2ccccc2c1)C(=O)O; 2Pal = N[C@@H](Cc1ccccn1)C(=O)O; X1 = O=C(CC1CCN([*:1])CC1)[*:2]; Cit = NC(=O)NCCC[C@H](N)C(=O)O; Suc = O=C(CCC(=O)[*:2])[*:1]; Tle = CC(C)(C)[C@H](N)C(=O)O; X15 = O=C1NC(=O)C(CC(=O)*)N1; Propanoyl(3-OH) = O=C(CCO)*; αMeP = C[C@@]1(C(=O)O)CCCN1; Nle = CCCC[C@H](N)C(=O)O; Orn = NCCC[C@H](N)C(=O)O; AEEA = NCCOCCOCC(=O)O; Aib = CC(C)(N)C(=O)O; Ahx = NCCCCCC(=O)O; βAla = NCCC(=O)O; NHBu = CCCCN*

Columns and labels:
[1] = target: T1, PSMA-expressing C4-2 cells (Homo sapiens, UniProt Q04609); experiment: FACS binding assay (competition with 50 nM PSM-0183); details: pIC50 category of FACS binding, C4-2 cells; read-out: pIC50 [C4-2] CAT (converted)
T1 construct: PSMA-expressing C4-2 cells (ATCC, Cat. No. CRL-3314) were cultured in RPMI-1640; host or cells: C4-2 cells
In short: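 C4-2 cells were incubated 1 h at 4 °C with 50 nM AF488-labelled peptide PSM-0183 plus increasing test compound concentrations, then washed twice in ice-cold buffer. Median fluorescence in the AF488 channel was read by flow cytometry. IC50/pIC50 was derived by 4PL fitting of MFI versus concentration.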

[2] = target: T2, Fc-fusion protein of human PSMA (hPSMA-Fc) (Homo sapiens, UniProt Q04609); experiment: Surface plasmon resonance assay (Biacore T200, single cycle kinetic); assay type: binding; details: pKD category for PSMA SPR activity assay, hPSMA-Fc, 25° C.; read-out: pKD CAT (converted)
T2 construct: purchased Acro Biosystems PSA-H5264
In short: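 hPSMA-Fc was captured (~1000 RU) on an Fc-binding-peptide CM5 chip, and compounds were run in single cycle kinetic mode at 25° C in HBST with 0.1% DMSO. Double-blank-corrected sensorgrams were fitted to a 1:1 Langmuir model to give KD, reported as pKD.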

T2 sequence (Q04609 44-750 limits assumed): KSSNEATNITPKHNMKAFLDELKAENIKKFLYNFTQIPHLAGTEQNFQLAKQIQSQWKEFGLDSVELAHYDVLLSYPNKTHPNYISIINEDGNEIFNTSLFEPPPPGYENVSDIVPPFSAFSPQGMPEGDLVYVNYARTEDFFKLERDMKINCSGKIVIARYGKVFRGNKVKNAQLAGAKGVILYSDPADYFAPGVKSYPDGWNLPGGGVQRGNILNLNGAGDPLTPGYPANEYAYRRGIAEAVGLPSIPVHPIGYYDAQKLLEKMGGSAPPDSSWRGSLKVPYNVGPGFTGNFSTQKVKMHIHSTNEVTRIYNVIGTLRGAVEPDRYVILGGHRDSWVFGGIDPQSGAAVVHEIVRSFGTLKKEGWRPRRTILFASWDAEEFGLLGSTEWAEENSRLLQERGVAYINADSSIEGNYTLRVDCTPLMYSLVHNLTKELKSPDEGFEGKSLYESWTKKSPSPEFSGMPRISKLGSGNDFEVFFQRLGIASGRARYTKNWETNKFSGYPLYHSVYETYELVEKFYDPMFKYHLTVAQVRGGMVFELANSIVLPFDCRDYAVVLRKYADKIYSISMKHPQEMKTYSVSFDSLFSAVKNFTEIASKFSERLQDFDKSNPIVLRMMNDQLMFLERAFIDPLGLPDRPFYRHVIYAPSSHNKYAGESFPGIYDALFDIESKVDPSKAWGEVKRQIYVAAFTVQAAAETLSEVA
T1 sequence (Q04609 whole entry): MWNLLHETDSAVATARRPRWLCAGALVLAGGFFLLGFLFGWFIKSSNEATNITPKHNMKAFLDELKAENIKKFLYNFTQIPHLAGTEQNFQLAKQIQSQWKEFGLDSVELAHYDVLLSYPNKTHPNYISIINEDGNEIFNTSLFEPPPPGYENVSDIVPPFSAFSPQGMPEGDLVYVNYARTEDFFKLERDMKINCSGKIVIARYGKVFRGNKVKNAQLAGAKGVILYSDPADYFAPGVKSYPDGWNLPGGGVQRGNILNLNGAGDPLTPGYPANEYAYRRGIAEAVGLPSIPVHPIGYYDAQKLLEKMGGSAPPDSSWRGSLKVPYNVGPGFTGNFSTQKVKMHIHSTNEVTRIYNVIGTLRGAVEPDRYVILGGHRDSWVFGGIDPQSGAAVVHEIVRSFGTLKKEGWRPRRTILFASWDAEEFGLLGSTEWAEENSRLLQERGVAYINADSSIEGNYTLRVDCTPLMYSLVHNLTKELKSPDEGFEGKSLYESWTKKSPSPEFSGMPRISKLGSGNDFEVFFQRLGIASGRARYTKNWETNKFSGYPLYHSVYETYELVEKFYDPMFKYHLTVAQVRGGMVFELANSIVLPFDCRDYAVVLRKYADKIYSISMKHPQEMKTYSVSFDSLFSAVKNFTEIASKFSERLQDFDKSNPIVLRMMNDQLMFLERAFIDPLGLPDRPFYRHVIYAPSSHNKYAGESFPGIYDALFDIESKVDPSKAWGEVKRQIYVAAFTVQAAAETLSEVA

SMILES | IC50 [1] [nM] | Kd [2] [nM]
CCCC[C@H](NC(=O)[C@@H]1CSSC[C@H](NC(=O)[C@H](Cc2ccccc2)NC(=O)[C@H](C)NC(=O)[C@@H](NC(=O)CCC(=O)NCCCOCCOCCOCCCNC(=O)CN2CCN(CC(=O)O)CCN(CC(=O)O)CCN(CC(=O)O)CC2)[C@@H](C)O)C(=O)N[C@@H](CCCCN)C(=O)N[C@@H](CCCNC(=N)N)C(=O)N[C@@H](C)C(=O)N[C@@H](CC(N)=O)C(=O)N1)C(=O)N[C@H](C(=O)N[C@@H](CC(=O)O)C(N)=O)[C@@H](C)O [PSM-0504, DOTA-Ttds-Thr-Ala-Phe-[Cys-Lys-Arg-Ala-Asn-Cys]-Nle-Thr-Asp-NH2] ({X3-Suc}-TAFCKRANC[Nle]TD-NH2; disulfide 4-9) | 200 to 1260 | 12.6 to 126
C[C@@H](O)[C@H](NC(=O)[C@@H](NC(=O)[C@@H]1CSSC[C@H](NC(=O)[C@H](Cc2ccccc2)NC(=O)C(C)(C)NC(=O)[C@@H](NC(=O)COCCOCCNC(=O)CN2CCN(CC(=O)O)CCN(CC(=O)O)CCN(CC(=O)O)CC2)[C@@H](C)O)C(=O)N[C@@H](CCCCN)C(=O)N[C@@H](CCCNC(=N)N)C(=O)NC(C)(C)C(=O)N[C@@H](CC(N)=O)C(=O)N1)C(C)(C)C)C(N)=O [PSM-0505, DOTA-020c-Thr-Aib-Phe-[Cys-Lys-Arg-Aib-Asn-Cys]-Tle-Thr-NH2] ({DOTA-AEEA}-T[Aib]FCKR[Aib]NC[Tle]T-NH2; disulfide 4-9) | < 200 | < 12.6
CC(=O)NC(C)(C)C(=O)N[C@@H](Cc1ccccc1)C(=O)N[C@H]1CSSC[C@@H](C(=O)N[C@H](C(=O)N[C@H](C(=O)N[C@@H](CC(=O)O)C(N)=O)[C@@H](C)O)C(C)(C)C)NC(=O)[C@H](CC(N)=O)NC(=O)[C@H](C)NC(=O)[C@H](CCCNC(=N)N)NC(=O)[C@H](CCCCN)NC1=O [PSM-0506, Ac-Aib-Pho-[Cys-Lys-Arg-Ala-Asn-Cys]-Tle-Thr-Asp-NH2] (Ac-[Aib]FCKRANC[Tle]TD-NH2; disulfide 3-8) | < 200 | < 12.6
C[C@@H](O)[C@H](NC(=O)[C@@H](NC(=O)[C@@H]1CSSC[C@H](NC(=O)[C@H](Cc2ccccc2)NC(=O)C(C)(C)NC(=O)CC2CCN(C(=O)CN3CCN(CC(=O)O)CCN(CC(=O)O)CCN(CC(=O)O)CC3)CC2)C(=O)N[C@@H](CCCCN)C(=O)N[C@@H](CCCNC(=N)N)C(=O)NC(C)(C)C(=O)N[C@@H](CC(N)=O)C(=O)N1)C(C)(C)C)C(N)=O [PSM-0507, DOTA-Cmp-Aib-Pho-[Cys-Lys-Arg-Aib-Asn-Cys]-Tle-Thr-NH2] ({DOTA}-[X1][Aib]FCKR[Aib]NC[Tle]T-NH2; disulfide 4-9) | < 200 | 12.6 to 126
CC(=O)N[C@H](C(=O)N1CCC[C@@]1(C)C(=O)N[C@@H](Cc1ccccc1)C(=O)N[C@H]1CSSC[C@@H](C(=O)N[C@H](C(=O)N[C@H](C(N)=O)[C@@H](C)O)C(C)(C)C)NC(=O)[C@H](CC(N)=O)NC(=O)C(C)(C)NC(=O)[C@H](CCCNC(=N)N)NC(=O)[C@H](CCCCN)NC1=O)[C@@H](C)O [PSM-0508, Ac-Thr-Pam-Phe-[Cys-Lys-Arg-Aib-Asn-Cys]-Tle-Thr-NH2] (Ac-T[αMeP]FCKR[Aib]NC[Tle]T-NH2; disulfide 4-9) | < 200 | < 12.6
C[C@@H](O)[C@H](NC(=O)[C@@H](NC(=O)[C@@H]1CSSC[C@H](NC(=O)[C@H](Cc2ccc(Cl)cc2)NC(=O)C(C)(C)NC(=O)CCO)C(=O)N[C@@H](CCCCN)C(=O)N[C@@H](CCCNC(=N)N)C(=O)NC(C)(C)C(=O)N[C@@H](CC(N)=O)C(=O)N1)C(C)(C)C)C(=O)N1CCC(CC(=O)N[C@H](CCCCNC(=O)CN2CCN(CC(=O)O)CCN(CC(=O)O)CCN(CC(=O)O)CC2)C(N)=O)CC1 [PSM-0509, HPA-Aib-Pcf-[Cys-Lys-Arg-Aib-Asn-Cys]-Tle-Thr-Cmp-lys(DOTA)-NH2] ({Propanoyl(3-OH)}-[Aib][Phe(4-Cl)]CKR[Aib]NC[Tle]T[X1][dK](DOTA)-NH2; disulfide 3-8) | < 200 | < 12.6
CCCCNC(=O)[C@@H](NC(=O)[C@@H]1CSSC[C@H](NC(=O)[C@H](Cc2ccccc2)NC(=O)C(C)(C)NC(=O)[C@@H](NC(C)=O)[C@@H](C)O)C(=O)N[C@@H](CCCCN)C(=O)N[C@@H](CCCNC(=N)N)C(=O)NC(C)(C)C(=O)N[C@@H](CC(N)=O)C(=O)N1)C(C)(C)C [PSM-0510, Ac-Thr-Aib-Phe-[Cys-Lys-Arg-Aib-Asn-Cys]-Tle-NHBu] (Ac-T[Aib]FCKR[Aib]NC[Tle]-NHBu; disulfide 4-9) | < 200 | < 12.6
C[C@@H](O)[C@H](NC(=O)[C@@H](NC(=O)[C@@H]1CSSC[C@H](NC(=O)[C@H](Cc2ccc(Cl)cc2)NC(=O)C(C)(C)NC(=O)[C@@H](NC(=O)CC2CCN(C(=O)CN3CCN(CC(=O)O)CCN(CC(=O)O)CCN(CC(=O)O)CC3)CC2)[C@@H](C)O)C(=O)N[C@@H](CCCN)C(=O)N[C@@H](CCCNC(=N)N)C(=O)NC(C)(C)C(=O)N[C@@H](CC(N)=O)C(=O)N1)C(C)(C)C)C(N)=O [PSM-0511, DOTA-Cmp-Thr-Aib-Pcf-[Cys-Om-Arg-Aib-Asn-Cys]-Tle-Thr-NH2] ({DOTA}-[X1]T[Aib][Phe(4-Cl)]C[Orn]R[Aib]NC[Tle]T-NH2; disulfide 5-10) | < 200 | < 12.6
C[C@@H](O)[C@H](NC(=O)[C@@H](NC(=O)[C@@H]1CSSC[C@H](NC(=O)[C@H](Cc2ccccn2)NC(=O)C(C)(C)NC(=O)[C@@H](NC(=O)CC2CCN(C(=O)CN3CCN(CC(=O)O)CCN(CC(=O)O)CCN(CC(=O)O)CC3)CC2)[C@@H](C)O)C(=O)N[C@@H](CCCCN)C(=O)N[C@@H](CCCNC(N)=O)C(=O)NC(C)(C)C(=O)N[C@@H](CC(N)=O)C(=O)N1)C(C)(C)C)C(N)=O [PSM-0512, DOTA-Cmp-Thr-Aib-Opa-[Cys-Lys-Cit-Aib-Asn-Cys]-Tle-Thr-NH2] ({DOTA}-[X1]T[Aib][2Pal]CK[Cit][Aib]NC[Tle]T-NH2; disulfide 5-10) | 200 to 1260 | 12.6 to 126
C[C@@H](O)[C@H](NC(=O)[C@@H](NC(=O)[C@@H]1CSSC[C@H](NC(=O)[C@H](Cc2ccccc2)NC(=O)C(C)(C)NC(=O)CCCCCNC(=O)CN2CCN(CC(=O)O)CCN(CC(=O)O)CCN(CC(=O)O)CC2)C(=O)N[C@@H](CCCCN)C(=O)N[C@@H](CCCNC(=N)N)C(=O)NC(C)(C)C(=O)N[C@@H](CC(N)=O)C(=O)N1)C(C)(C)C)C(N)=O [PSM-0513, DOTA-Ahx-Aib-Phe-[Cys-Lys-Arg-Aib-Asn-Cys]-Tle-Thr-NH2] ({DOTA-Ahx}-[Aib]FCKR[Aib]NC[Tle]T-NH2; disulfide 3-8) | < 200 | < 12.6
CC(=O)N[C@H](C(=O)NC(C)(C)C(=O)N[C@@H](Cc1ccc(Cl)cc1)C(=O)N[C@H]1CSSC[C@@H](C(=O)N[C@H](C(=O)NCCC(N)=O)C(C)(C)C)NC(=O)[C@H](CC(N)=O)NC(=O)C(C)(C)NC(=O)[C@H](CCCNC(=N)N)NC(=O)[C@H](CCCCN)NC1=O)[C@@H](C)O [PSM-0514, Ac-Thr-Aib-Pcf-[Cys-Lys-Arg-Aib-Asn-Cys]-Tle-Bal-NH2] (Ac-T[Aib][Phe(4-Cl)]CKR[Aib]NC[Tle][βAla]-NH2; disulfide 4-9) | < 200 | < 12.6
CC(=O)N[C@H](C(=O)NC(C)(C)C(=O)N[C@@H](Cc1ccc2ccccc2c1)C(=O)N[C@H]1CSSC[C@@H](C(=O)N[C@H](C(=O)N[C@H](C(=O)N[C@@H](CC(=O)O)C(N)=O)[C@@H](C)O)C(C)(C)C)NC(=O)[C@H](CC(N)=O)NC(=O)C(C)(C)NC(=O)[C@H](CCCNC(=N)N)NC(=O)[C@H](CCCCN)NC1=O)[C@@H](C)O [PSM-0517, Ac-Thr-Aib-2Ni-[Cys-Lys-Arg-Aib-Asn-Cys]-Tle-Thr-Asp-NH2] (Ac-T[Aib][2Nal]CKR[Aib]NC[Tle]TD-NH2; disulfide 4-9) | < 200 | < 12.6
C[C@@H](O)[C@H](NC(=O)[C@@H](NC(=O)[C@@H]1CSSC[C@H](NC(=O)[C@H](Cc2ccccc2)NC(=O)C(C)(C)NC(=O)CC2NC(=O)NC2=O)C(=O)N[C@@H](CCCCN)C(=O)N[C@@H](CCCNC(=N)N)C(=O)NC(C)(C)C(=O)N[C@@H](CC(N)=O)C(=O)N1)C(C)(C)C)C(N)=O (stereo partly drawn) [PSM-0518, HYDAc-Aib-Phe-[Cys-Lys-Arg-Aib-Asn-Cys]-Tle-Thr-NH2] (X15-[Aib]FCKR[Aib]NC[Tle]T-NH2; disulfide 3-8) | < 200 | < 12.6
C[C@@H](O)[C@H](NC(=O)[C@@H](NC(=O)[C@@H]1CSSC[C@H](NC(=O)[C@H](Cc2ccccc2)NC(=O)C(C)(C)NC(=O)[C@@H](NC(=O)CCC(=O)NCCCOCCOCCOCCCNC(=O)CN2CCN(CC(=O)O)CCN(CC(=O)O)CCN(CC(=O)O)CC2)[C@@H](C)O)C(=O)N[C@@H](CCCCN)C(=O)N[C@@H](CCC(N)=O)C(=O)NC(C)(C)C(=O)N[C@@H](CC(N)=O)C(=O)N1)C(C)(C)C)C(N)=O [PSM-0521, DOTA-Ttds-Thr-Aib-Phe-[Cys-Lys-Gln-Aib-Asn-Cys]-Tle-Thr-NH2] ({X3-Suc}-T[Aib]FCKQ[Aib]NC[Tle]T-NH2; disulfide 4-9) | 200 to 1260 | 12.6 to 126
